Where a name gives a salt, the structure may show the parent alone.
Assays:
[1] = Viscosity, Brookfield viscometer DV-II+ (Spindle No. 2, 12 rpm, 25°C); format: physicochemical
Experimental: The viscosity of the oil agent of the present invention is, when used in external preparations such as moisturizers and cosmetic materials, preferably 5-200 (mPa·s, 25°C), and more preferably 8-100 (mPa·s, 25°C) . When the viscosity is within the above range, good feeling of use without stickiness can be obtained upon application to skin, etc. In addition, when the oil agent is used in lubricating agents, the viscosity is preferably 50-200 (mPa·s, 25°C) , and more preferably 60-180 (mPa·s, 25°C). When the viscosity is within this range, appropriate lubricating property and workability can be obtained. In this specification, "viscosity" refers to a value of viscosity measured using a Brookfield viscometer DV-II+ (Spindle No. 2, 12 rpm, 25°C).
In these examples, viscosity was measured using a Brookfield viscometer DV-II+ (Spindle No. 2, 12 rpm, 25°C).

[2] = Feeling of use, graded by viscosity; format: physicochemical; conditions: class by viscosity at 25°C
[3] = Water solubility evaluation; format: physicochemical; conditions: in water
[4] = Oil solubility evaluation in KAK99 (isononyl isononanoate)

Compound	Viscosity [1]	Feeling of use [2]	Oil solubility [4]	Water solubility [3]
CCOCCOCCOC(=O)CC(C)CC(C)(C)C (stereo not drawn) [Comparative example 1, carbitol isononanoate, reference compound]	5 mPa·s	light		
CCOCCOCCOC(=O)CCC(=O)OCCOCCOCC [Example 1, dicarbitol succinate]	12.5 mPa·s	light		
CCOCCOC(=O)CCC(=O)OCCOCC [Example 6, di(monoethylene glycol monoethyl ether) succinate]	10.0 mPa·s	light		△ (Dissolved in water up to 5 % by mass)

Second part, led by results:

Viscosity [1]	Feeling of use [2]	Oil solubility [4]	Compound	Water solubility [3]
45 mPa·s	slightly light	△ (Dissolved in KAK99 up to 5 % by mass)	CCOCCOCCOC(=O)CC(O)C(=O)OCCOCCOCC (stereo not drawn) [Example 2, dicarbitol malate]	○ (Dissolved in water up to 10 % by mass)
20 mPa·s	light		CCOCCOCCOC(=O)CCCCC(=O)OCCOCCOCC [Example 3, dicarbitol adipate]	
207 mPa·s	slightly heavy		CCOCCOCCOC(=O)C(O)C(O)C(=O)OCCOCCOCC (stereo not drawn) [Example 4, dicarbitol tartrate]	
32.5 mPa·s	slightly light	△ (Dissolved in KAK99 up to 5 % by mass)	CCOCCOCCOCCOC(=O)CCC(=O)OCCOCCOCCOCC [Example 5, di(triethylene glycol monoethyl ether) succinate]	
